Like-named read-outs stand apart in the source and are kept apart here.
How the values were obtained:
γ-secretase = molecular target: T1, γ-secretase (Homo sapiens, UniProt P49768); assay: WTAPP cell assay Aβ42 (γ-secretase-modulating activity, SKNBE2 cells carrying APP 695 wild type); type: cell-based; conditions: for EC50: SKNBE2 cells carrying APP 695 wild type
T1 construct: endogenous in cells; host or cells: SKNBE2 cells carrying APP 695 wild type
Method: Screening of the Compounds of the Invention for γ-Secretase-Modulating Activity
Screening was carried out using SKNBE2 cells carrying the APP 695-wild type, grown in DMEM/NUT-mix F12 (HAM) provided by Gibco (cat no. 31330-38) containing 5% Serum/Fe supplemented with 1% non-essential amino acids.
Cells were grown to near confluency.
The screening was performed using the assay as described in Citron et al (1997) Nature Medicine 3: 67.

Aβ42 = assay: In vivo mouse Aβ42 lowering (brain Aβ42 ELISA); conditions: oral dose 30 mg/kg, 4 hr time point
From the text: To determine whether acute administration of an Aβ42 lowering agent would reduce Aβ42 levels in vivo, non-transgenic rodents, e.g. mice or rats were used. Alternatively, two to three month old Tg2576 mice expressing APP695 containing the “Swedish” variant can be used or a transgenic mouse model developed by Dr. Fred Van Leuven (K. U. Leuven, Belgium) and co-workers, with neuron-specific expression of a clinical mutant of the human amyloid precursor protein [V717I] (Moechars et al., 1999 J. Biol. Chem. 274, 6483). Young transgenic mice have high levels of Aβ in the brain but no detectable Aβ deposition. At approximately 6-8 months of age , the transgenic mice start to display spontaneous, progressive accumulation of β-amyloid (Aβ) in the brain, eventually resulting in amyloid plaques within the subiculum, hippocampus and cortex. Animals treated with the Aβ42 lowering agent will be examined and compared to those untreated or treated with vehicle and brain levels of soluble Aβ42 and total Aβ would be quantitated by standard techniques, for example, using ELISA. Treatment periods may vary from hours to days and will be adjusted based on the results of the Aβ42 lowering once a time course of onset of effect can be established.
(§1) A typical protocol for measuring Aβ42 lowering in vivo is shown but it is only one of many variations that could be used to optimize the levels of detectable Aβ. For example, Aβ42 lowering compounds as free acids or sodium salts were formulated in 5% of solutol in water or 20% hydroxypropyl β cyclodextrin. The Aβ42 lowering agents are administered as a single oral dose or by any acceptable route of administration e.g., three to four hours before sacrifice, determined empirically, and analysis or alternatively could be given over a course of days and the animals sacrificed three to four hours after the final dose is given.
(§2) The mice are anaesthetized with a mixture of Ketalar (Ketamin), Rompun (Xylazin 2%) and Atropin (2:1:1) and flushed trans-cardially with physiological serum at 4° C. Blood is collected at sacrifice. The blood collection is performed via a heart puncture during anesthesia in EDTA treated collection tubes. Blood is centrifuged at 4000 g for 5 minutes at 4° C. and the plasma recovered and flash frozen for later analysis. The brain is removed from the cranium and hindbrain and forebrain are separated with a cut in the coronal/frontal plane. The cerebellum is removed and retained for quantitative analysis of test compound levels. The forebrain is divided evenly into left and right hemisphere by using a midline sagital cut.
Both hemispheres are immediately immersed in liquid nitrogen and stored at −70° C. until homogenization for biochemical assays. […]

[1] = Brain and plasma compound concentration in mouse after oral dose; type: in vivo; conditions: 30 mg/kg, 30 mpk po
Method: as §1, §2
Oral dose 30 mg/kg at 4 hr Time Point

Cyclooxygenase-1 (Cox-1) = molecular target: T2, Cyclooxygenase-1 (Cox-1) (Ovis aries, UniProt P05979); assay: Colorimetric Cox inhibitor screening assay (Cayman), Cox-1; type: biochemical
T2 construct: purchased Cayman Chemical Company 760111
T2 sequence (P05979 25-600): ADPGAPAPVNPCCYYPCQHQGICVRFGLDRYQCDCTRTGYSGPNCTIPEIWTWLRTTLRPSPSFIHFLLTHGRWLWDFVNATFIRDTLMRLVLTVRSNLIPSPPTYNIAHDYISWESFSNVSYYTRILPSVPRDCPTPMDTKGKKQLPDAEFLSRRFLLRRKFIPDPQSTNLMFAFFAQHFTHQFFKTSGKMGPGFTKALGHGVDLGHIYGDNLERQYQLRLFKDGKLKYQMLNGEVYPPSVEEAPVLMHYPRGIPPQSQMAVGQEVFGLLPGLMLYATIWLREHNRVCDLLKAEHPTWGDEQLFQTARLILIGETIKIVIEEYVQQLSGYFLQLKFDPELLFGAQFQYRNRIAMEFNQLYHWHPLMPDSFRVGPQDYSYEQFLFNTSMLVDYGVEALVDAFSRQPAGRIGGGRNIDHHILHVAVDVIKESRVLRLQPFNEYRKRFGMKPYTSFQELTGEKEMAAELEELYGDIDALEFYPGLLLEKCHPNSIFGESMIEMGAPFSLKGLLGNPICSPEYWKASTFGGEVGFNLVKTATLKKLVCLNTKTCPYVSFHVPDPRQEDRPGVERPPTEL
Method: (§3) Determination of the Effect of the Compounds According to the Invention on Cyclooxygenase-1 and Cyclooxygenase-2 (Cox-1, Cox-2)
(§4) Inhibition of Cox-1 and Cox-2 was determined using the Colorimetric Cox inhibitor screening assay provided by Cayman Chemical Company, Ann Arbor, Mich., USA. (Cat. No. 760111) according to manufacturer's instructions.

Cyclooxygenase-2 (Cox-2) = molecular target: T3, Cyclooxygenase-2 (Cox-2) (Ovis aries, UniProt P79208); assay: Colorimetric Cox inhibitor screening assay (Cayman), Cox-2; type: biochemical
T3 construct: purchased Cayman Chemical Company 760111
T3 sequence (P79208 17-603): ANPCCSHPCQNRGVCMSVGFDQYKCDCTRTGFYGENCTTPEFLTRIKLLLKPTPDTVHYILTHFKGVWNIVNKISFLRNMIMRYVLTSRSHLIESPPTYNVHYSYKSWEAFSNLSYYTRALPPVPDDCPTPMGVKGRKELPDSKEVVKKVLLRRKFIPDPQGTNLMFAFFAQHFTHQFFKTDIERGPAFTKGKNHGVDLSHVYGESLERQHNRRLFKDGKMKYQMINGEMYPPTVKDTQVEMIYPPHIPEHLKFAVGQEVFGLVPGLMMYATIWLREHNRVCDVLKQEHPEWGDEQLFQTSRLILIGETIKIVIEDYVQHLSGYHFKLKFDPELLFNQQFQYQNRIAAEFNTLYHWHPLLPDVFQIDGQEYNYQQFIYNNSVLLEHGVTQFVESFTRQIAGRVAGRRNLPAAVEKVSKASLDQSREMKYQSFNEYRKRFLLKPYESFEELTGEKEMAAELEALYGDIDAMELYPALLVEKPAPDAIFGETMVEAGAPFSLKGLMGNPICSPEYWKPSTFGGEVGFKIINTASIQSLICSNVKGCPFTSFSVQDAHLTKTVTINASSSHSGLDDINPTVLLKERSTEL
Method: as §3, §4

[2] = brain, read-out: Brain concentration @ 30 mpk po (4 hr)
[3] = plasma, read-out: Plasma concentration @ 30 mpk po (4 hr)

Row | Structure (SMILES) | IC50 (γ-secretase; comparison compound, read-out: IC50 in the above WTAPP cell assay) [µM] | EC50 (γ-secretase) [µM] | In vivo mouse Aβ42 efficacy @ 30 mpk (4 hr) inhibition (Aβ42) [%] | concentration at 4 h [1, 2] [µM] | concentration at 4 h [1, 3] [µM] | inhibition at 100 µM (Cyclooxygenase-1 (Cox-1)) [%] | inhibition at 100 µM (Cyclooxygenase-2 (Cox-2)) [%]
1 | CCC[C@H](C(=O)O)c1cc(OCc2ccccc2)cc(-c2ccc(C(F)(F)F)cc2)c1 [reference compound] | 2.5 | – | – | – | – | – | –
2 | CC(C)C[C@H](C(=O)O)c1cc(OCc2cc(F)cc(F)c2)cc(-c2ccc(C(F)(F)F)cc2)c1 [Compound 2, (S)-2-[5-(3,5-Difluoro-benzyloxy)-4′-trifluoromethyl-biphenyl-3-yl]-4-methyl-pentanoic acid] | – | 1.12 | 45 | 11.1 ± 2.8 | 11.1 ± 8.9 | – | –
3 | CC(C)C[C@@H](C(=O)O)c1cc(OCc2cc(F)cc(F)c2)cc(-c2ccc(C(F)(F)F)cc2)c1 [Compound 1, (R) 2-[5-(3,5-Difluoro-benzyloxy)-4′-trifluoromethyl-biphenyl-3-yl]-4-methyl-pentanoic acid] | – | 0.525 | 50 | 6.9 ± 2.3 | 6.9 ± 12.2 | < 50 | < 50
4 | CC(C)C[C@@H](C(=O)O)c1cc(OCc2ccc(F)cc2C(F)(F)F)cc(-c2ccc(C(F)(F)F)cc2)c1 [Compound 3, (R)-2-[5-(4-fluoro-2-trifluoromethyl-benzyloxy)-4′-trifluoromethyl-biphenyl-3-yl]-4-methyl-pentanoic acid] | – | 0.316 | 25 | 5.1 ± 1.1 | 5.1 ± 2.8 | – | –
5 | CC(C)CC(C(=O)O)c1cc(OCc2cc(F)cc(F)c2)cc(-c2ccc(Cl)c(C(F)(F)F)c2)c1 (stereo not shown) [Compound 4, 2-[4′-Chloro-5-(3,5-difluoro-2-benzyloxy)-3′-trifluoromethyl-biphenyl-3-yl]-4-methyl-pentanoic acid] | – | 0.19 | 42 | 6.5 ± 1.5 | 6.5 ± 6.3 | – | –

From patent publication US7897643B2, “Biphenyl carboxylic acids and derivatives thereof” (Janssen Pharmaceutica N.V., priority 2007, dated 2011)
